# From US8937068B2, “Pyridopyrazine derivatives and their use” (Zentaris GmbH, priority 2005, dated 2015)
# Experiments:
# [1] = test system: Jnk1 + Jnk2; assay: Cell-free kinase assay (ALPHA technology), Jnk1 + Jnk2; assay type: biochemical, human; conditions: 10 μM ATP
# Method: (§1) The inhibitory effect of the compounds according to the invention was tested on various serine/threonine, tyrosine and lipid kinases in enzymatic assays. Recombinant human kinases such as, for example, Erk2, PI3Kalpha, -beta, -gamma, -delta, p38alpha, p38gamma, Jnk1, Jnk2 and others were used in this case, partly as full-length kinases, partly as shortened fragments, but at least consisting of the functional kinase domains. The commercial kinase proteins (Proqinase, Upstate) were used as recombinant fusion proteins with GST (glutathion-S-transferase) or His-Tag. Depending on the type of substrate, the various kinase reactions were quantified by means of suitable ALPHA™ beads (Perkin-Elmer).
# (§2) The substance testing is described in detail hereinafter for the Erk assay.
# (§3) a) MAPK-ALPHAs (e.g. Erk2): the test substance, 0.625 ng Erk2 (#14-173, Upstate), 10 μM ATP and 15 nM biotinylated MBP (myelin basic protein) substrate were incubated on a 384-well Optiplate (Perkin-Elmer) in a volume of 15 μl for 1 h in 25 mM Tris, 10 mM MgCl2, 0.1% Tween-20, 100 μM NaVO4, 2 mM DTT at pH 7.5. The kinase reaction was then stopped by adding 10 μl of the ALPHA bead mixes (10 μg/ml, #6760617/Perkin-Elmer) pre-incubated with anti-phospho MBP antibody (320 pM, #05-429/Upstate) in 25 mM Tris, 200 mM NaCl, 110 nM EDTA and 0.3% BSA and left to stand overnight. b) PI3K-ALPHAs (e.g. PI3Kalpha): the test substance, 1 ng PI3Kalpha (#14-602, Upstate), 100 μM ATP and 20 μM PIP2 substrate (#P4508, Echelon) were incubated on a 384-well Optiplate (Perkin-Elmer) for 1 h in 50 mM Hepes, 50 mM NaCl, 5 mM MgCl2, 0.05% Chaps, 5 mM DTT at pH 7.4. The kinase reaction was then stopped by adding ALPHA bead mixes (10 μg/ml, #6760603/Perkin-Elmer) pre-incubated with 1 nM GST:Grp1 fusion protein (Upstate) and 15 nM biotinylated PIP3 (#C-39B6/Echelon) in 50 mM Hepes, 50 mM NaCl, 50 mM EDTA and 0.1% BSA and left to stand overnight.
# (§4) The fluorescence was detected the following morning in a Fusion™^aα-system (Perkin-Elmer).
# (§5) The %-inhibition values per substance concentration were calculated by means of the following formula from the raw data determined in the Fusion™ ? :
# (§6) Eight determinations were made for each control and two for the substance samples. The 0% control either contains no ATP or no substrate, the 100% control (fully active kinase) contains no test substance. The IC50 values were determined using GraphPadPrism.
# [2] = molecular target: Erk2 (Homo sapiens, UniProt P28482); assay: Cell-free kinase assay (ALPHA technology), Erk2; assay type: biochemical; conditions: 10 μM ATP
# Sequence of Erk2 (P28482 2-360 limits assumed): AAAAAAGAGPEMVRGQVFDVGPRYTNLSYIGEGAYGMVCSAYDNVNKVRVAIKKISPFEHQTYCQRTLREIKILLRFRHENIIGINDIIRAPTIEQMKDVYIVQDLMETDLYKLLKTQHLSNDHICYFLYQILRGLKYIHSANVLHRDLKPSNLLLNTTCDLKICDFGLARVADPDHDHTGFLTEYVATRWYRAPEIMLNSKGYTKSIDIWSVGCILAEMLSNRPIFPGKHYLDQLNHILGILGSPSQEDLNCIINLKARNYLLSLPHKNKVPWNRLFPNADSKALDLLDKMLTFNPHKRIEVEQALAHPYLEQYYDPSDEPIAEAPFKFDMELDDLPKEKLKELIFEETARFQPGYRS
# Method: The inhibitory effect of the compounds according to the invention was tested on various serine/threonine, tyrosine and lipid kinases in enzymatic assays. […] The commercial kinase proteins (Proqinase, Upstate) were used as recombinant fusion proteins with GST (glutathion-S-transferase) or His-Tag. Depending on the type of substrate, the various kinase reactions were quantified by means of suitable ALPHA™ beads (Perkin-Elmer). The substance testing is described in detail hereinafter for the Erk assay. […] a) MAPK-ALPHAs (e.g. […] The kinase reaction was then stopped by adding ALPHA bead mixes (10 μg/ml, #6760603/Perkin-Elmer) pre-incubated with 1 nM GST:Grp1 fusion protein (Upstate) and 15 nM biotinylated PIP3 (#C-39B6/Echelon) in 50 mM Hepes, 50 mM NaCl, 50 mM EDTA and 0.1% BSA and left to stand overnight. The fluorescence was detected the following morning in a Fusion™^aα-system (Perkin-Elmer). […] Eight determinations were made for each control and two for the substance samples. […] The IC50 values were determined using GraphPadPrism.
# [3] = molecular target: PI3Kalpha (Homo sapiens (Human), UniProt P42336); assay: Cell-free kinase assay (ALPHA technology), PI3Kalpha; assay type: biochemical; conditions: 100 μM ATP
# Sequence of PI3Kalpha (P42336 whole entry): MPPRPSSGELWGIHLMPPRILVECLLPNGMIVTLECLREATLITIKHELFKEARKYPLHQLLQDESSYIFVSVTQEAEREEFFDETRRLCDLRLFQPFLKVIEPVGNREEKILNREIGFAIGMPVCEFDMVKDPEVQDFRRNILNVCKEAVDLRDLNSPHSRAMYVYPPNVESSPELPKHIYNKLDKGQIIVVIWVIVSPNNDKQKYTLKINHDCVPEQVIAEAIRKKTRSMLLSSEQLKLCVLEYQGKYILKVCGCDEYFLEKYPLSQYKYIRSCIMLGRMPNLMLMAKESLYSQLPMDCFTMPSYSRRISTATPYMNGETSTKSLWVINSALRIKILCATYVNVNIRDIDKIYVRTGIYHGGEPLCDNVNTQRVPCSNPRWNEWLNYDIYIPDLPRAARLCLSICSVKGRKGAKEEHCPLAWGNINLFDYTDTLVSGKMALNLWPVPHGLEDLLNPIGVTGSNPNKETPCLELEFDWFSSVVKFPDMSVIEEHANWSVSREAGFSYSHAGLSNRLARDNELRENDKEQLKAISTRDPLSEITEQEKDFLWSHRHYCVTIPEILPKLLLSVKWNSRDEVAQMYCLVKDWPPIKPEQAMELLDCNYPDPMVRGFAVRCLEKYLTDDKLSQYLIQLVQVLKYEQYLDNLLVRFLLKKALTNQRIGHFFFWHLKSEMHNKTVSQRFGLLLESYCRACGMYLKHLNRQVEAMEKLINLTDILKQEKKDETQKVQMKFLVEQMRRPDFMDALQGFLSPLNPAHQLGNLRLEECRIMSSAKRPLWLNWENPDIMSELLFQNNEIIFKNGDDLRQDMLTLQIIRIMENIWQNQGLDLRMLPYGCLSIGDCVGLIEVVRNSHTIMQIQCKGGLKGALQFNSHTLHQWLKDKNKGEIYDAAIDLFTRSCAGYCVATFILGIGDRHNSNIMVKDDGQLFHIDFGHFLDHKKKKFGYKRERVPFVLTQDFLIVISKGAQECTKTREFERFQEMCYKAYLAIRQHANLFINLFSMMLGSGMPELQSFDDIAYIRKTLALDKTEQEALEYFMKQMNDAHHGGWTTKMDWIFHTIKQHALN
# Sequence of PI3Kalpha (P27986 whole entry partner): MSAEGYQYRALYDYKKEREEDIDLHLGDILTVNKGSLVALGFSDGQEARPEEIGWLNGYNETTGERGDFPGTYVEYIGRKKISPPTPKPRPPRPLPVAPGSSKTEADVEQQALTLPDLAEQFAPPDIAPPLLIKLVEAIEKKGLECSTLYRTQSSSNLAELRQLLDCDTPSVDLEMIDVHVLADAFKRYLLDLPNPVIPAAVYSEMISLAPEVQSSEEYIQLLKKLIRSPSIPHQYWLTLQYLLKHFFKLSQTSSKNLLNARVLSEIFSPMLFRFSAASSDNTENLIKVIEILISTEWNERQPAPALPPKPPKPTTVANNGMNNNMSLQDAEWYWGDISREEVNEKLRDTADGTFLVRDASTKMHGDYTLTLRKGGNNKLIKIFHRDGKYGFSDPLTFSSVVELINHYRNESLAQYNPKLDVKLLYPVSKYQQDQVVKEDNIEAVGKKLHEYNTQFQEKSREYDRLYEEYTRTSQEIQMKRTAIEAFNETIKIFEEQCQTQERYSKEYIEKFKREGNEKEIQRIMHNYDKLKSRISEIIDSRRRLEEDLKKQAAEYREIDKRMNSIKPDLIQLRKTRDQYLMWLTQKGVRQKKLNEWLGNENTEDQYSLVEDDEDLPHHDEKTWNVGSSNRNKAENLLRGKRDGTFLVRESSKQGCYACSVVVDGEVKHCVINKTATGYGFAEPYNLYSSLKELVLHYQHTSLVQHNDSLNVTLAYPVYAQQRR
# Method: as §1, §2, §3, §4, §5, §6
# [4] = molecular target: p38alpha (Homo sapiens (Human), UniProt Q16539); assay: Cell-free kinase assay (ALPHA technology), p38alpha; assay type: biochemical; conditions: 10 μM ATP
# Sequence of p38alpha (Q16539 whole entry): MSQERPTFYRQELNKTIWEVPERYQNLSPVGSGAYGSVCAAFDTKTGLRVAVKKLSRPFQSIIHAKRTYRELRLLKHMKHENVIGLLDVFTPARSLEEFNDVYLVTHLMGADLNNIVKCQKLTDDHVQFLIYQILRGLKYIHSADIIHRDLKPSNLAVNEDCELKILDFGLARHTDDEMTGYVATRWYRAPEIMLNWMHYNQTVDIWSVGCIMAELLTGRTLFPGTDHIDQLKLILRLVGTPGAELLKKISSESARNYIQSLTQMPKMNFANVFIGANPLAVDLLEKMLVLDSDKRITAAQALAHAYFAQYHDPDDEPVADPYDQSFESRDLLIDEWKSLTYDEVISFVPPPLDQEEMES
# Method: as §1, §2, §3, §4, §5, §6
Compound,IC50 [1],IC50 [2],IC50 [3],IC50 [4]
"1-[3-(3,5-Dichloro-4-hydroxy-phenyl)-pyrido[2,3-b]pyrazin-6-yl]-3-ethyl-urea [Compound 186]",2.5 µM,0.223 µM,3.8 µM,> 100 µM
"CCN(C(C)=O)C(=O)Nc1ccc2ncc(-c3ccccc3)nc2n1 [Compound 46, 1-Acetyl-1-ethyl-3-(3-phenyl-pyrido[2,3-b]pyrazin-6-yl)-urea]",> 100 µM,9.5 µM,> 100 µM,0.495 µM
"CCNC(=S)Nc1ccc2ncc(-c3ccc(O)cc3)nc2n1 [Compound 149, 1-Ethyl-3-[3-(4-hydroxy-phenyl)-pyrido[2,3-b]pyrazin-6-yl]-thiourea]",> 31.6 µM,0.954 µM,3.5 µM,> 100 µM
"CCNC(=O)Nc1ccc2ncc(Nc3ccc(OC)cc3)nc2n1 [Compound 158, 1-Ethyl-3-[3-(4-methoxy-phenylamino)-pyrido[2,3-b]pyrazin-6-yl]-urea]",> 31.6 µM,> 100 µM,0.186 µM,> 100 µM
"CCNC(=O)Nc1ccc2ncc(Nc3ccccc3C)nc2n1 [Compound 160, 1-Ethyl-3-(3-o-tolylamino-pyrido[2,3-b]-pyrazin-6-yl)-urea]",> 31.6 µM,5.8 µM,2.9 µM,> 31.6 µM
"CCNC(=O)Nc1ccc2ncc(Nc3cccnc3)nc2n1 [Compound 161, 1-Ethyl-3-[3-(pyridin-3-ylamino)-pyrido-[2,3-b]pyrazin-6-yl]-urea]",> 100 µM,> 100 µM,1.1 µM,> 100 µM
"CCNC(=O)Nc1ccc2ncc(Nc3ccc(CC)cc3)nc2n1 [Compound 162, 1-Ethyl-3-[3-(4-ethyl-phenylamino)-pyrido[2,3-b]pyrazin-6-yl]-urea]",> 31.6 µM,> 100 µM,0.19 µM,> 100 µM
"CCNC(=O)Nc1ccc2ncc(Nc3ccc(C)c(OC)c3)nc2n1 [Compound 163, 1-Ethyl-3-[3-(3-methoxy-4-methyl-phenylamino)-pyrido[2,3-b]pyrazin-6-yl]-urea]",> 31.6 µM,26.9 µM,0.096 µM,> 100 µM
"CCNC(=O)Nc1ccc2ncc(Nc3ccc(C)cn3)nc2n1 [Compound 165, 1-Ethyl-3-[3-(5-methyl-pyridin-2-yl-amino)-pyrido[2,3-b]pyrazin-6-yl]-urea]",27.1 µM,19.4 µM,1.2 µM,> 100 µM
"CCNC(=O)Nc1ccc2ncc(Nc3ccn(C)n3)nc2n1 [Compound 166, 1-Ethyl-3-[3-(1-methyl-1H-pyrazol-3-ylamino)-pyrido[2,3-b]pyrazin-6-yl]-urea]",21.9 µM,13.7 µM,1.3 µM,> 100 µM
"CCNC(=O)Nc1ccc2ncc(Nc3ccc(F)cc3)nc2n1 [Compound 167, 1-Ethyl-3-[3-(4-fluoro-phenylamino)-pyrido[2,3-b]pyrazin-6-yl]-urea]",27.3 µM,> 100 µM,1.1 µM,> 100 µM

# Further lines, results first:
IC50 [1],IC50 [2],IC50 [3],IC50 [4],Compound
5.5 µM,0.006 µM,6.2 µM,> 100 µM,"CCNC(=O)Nc1ccc2ncc(-c3ccc(O)cc3)nc2n1 [Compound 43, 1-Ethyl-3-[3-(4-hydroxy-phenyl)-pyrido[2,3-b]pyrazin-6-yl]-urea]"
1.5 µM,2.5 µM,3.8 µM,> 100 µM,"CNC(=S)Nc1ccc2ncc(-c3ccc(N)cc3)nc2n1 [Compound 44, 1-[3-(4-Amino-phenyl)-pyrido[2,3-b]pyrazin-6-yl]-3-methyl-thiourea]"
1.1 µM,0.944 µM,6.4 µM,> 31.6 µM,"CCNC(=O)Nc1ccc2ncc(-c3ccc(N)cc3)nc2n1 [Compound 82, 1-[3-(4-Amino-phenyl)-pyrido[2,3-b]pyrazin-6-yl]-3-ethyl-urea]"
14.2 µM,0.711 µM,4.1 µM,> 100 µM,"O=C(NCCCO)Nc1ccc2ncc(-c3ccccc3)nc2n1 [Compound 147, 1-(3-Hydroxy-propyl)-3-(3-phenyl-pyrido[2,3-b]pyrazin-6-yl)-urea]"
13.7 µM,1.8 µM,1.4 µM,> 100 µM,"CCNC(=O)Nc1ccc2ncc(-c3ccc(OCCCN4CCOCC4)cc3)nc2n1 [Compound 148, 1-Ethyl-3-{3-[4-(3-morpholin-4-yl-propoxy)-phenyl]-pyrido[2,3-b]pyrazin-6-yl}-urea]"
2.9 µM,0.104 µM,1.5 µM,> 100 µM,"CCNC(=O)Nc1ccc2ncc(-c3cccc(O)c3)nc2n1 [Compound 151, 1-Ethyl-3-[3-(3-hydroxy-phenyl)-pyrido[2,3-b]pyrazin-6-yl]-urea]"
12.1 µM,1.9 µM,5.3 µM,> 100 µM,"CCNC(=O)Nc1ccc2ncc(-c3cccc(C(=O)O)c3)nc2n1 [Compound 152, 3-[6-(3-Ethyl-ureido)-pyrido[2,3-b]pyrazin-3-yl]-benzoic acid]"
2.8 µM,0.592 µM,0.984 µM,> 31.6 µM,"CCNC(=O)Nc1ccc2ncc(-c3ccc(N)c(OC)c3)nc2n1 [Compound 154, 1-[3-(4-Amino-3-methoxy-phenyl)-pyrido[2,3-b]pyrazin-6-yl]-3-ethyl-urea]"
7.8 µM,> 100 µM,5 µM,> 100 µM,"CCNC(=O)Nc1ccc2ncc(-c3cccc(C(N)=O)c3)nc2n1 [Compound 155, 3-[6-(3-Ethyl-ureido)-pyrido[2,3-b]-pyrazin-3-yl]-benzamide]"
12.6 µM,> 100 µM,0.147 µM,> 100 µM,"CCNC(=O)Nc1ccc2ncc(Nc3ccc(Cl)cc3)nc2n1 [Compound 159, 1-[3-(4-Chloroo-phenylamino)-pyrido-[2,3-b]pyrazin-6-yl]-3-ethyl-urea]"
2.5 µM,0.15 µM,0.612 µM,> 100 µM,"COc1cc(-c2cnc3ccc(NC(=O)NCCCCO)nc3n2)ccc1O [Compound 168, 1-(4-Hydroxy-butyl)-3-[3-(4-hydroxy-3-methoxy-phenyl)-pyrido[2,3-b]pyrazin-6-yl]-urea]"
1.1 µM,0.103 µM,2.4 µM,> 31.6 µM,"CCNC(=O)Nc1ccc2ncc(-c3ccc(O)cc3Cl)nc2n1 [Compound 170, 1-[3-(2-Chloro-4-hydroxy-phenyl)-pyrido[2,3-b]pyrazin-6-yl]-3-ethyl-urea]"
1.4 µM,0.084 µM,3 µM,> 100 µM,"CCNC(=O)Nc1ccc2ncc(-c3ccc(Cl)cc3OC)nc2n1 [Compound 171, 1-[3-(4-Chloro-2-methoxy-phenyl)-pyrido[2,3-b]pyrazin-6-yl]-3-ethyl-urea]"
4 µM,0.41 µM,4 µM,> 100 µM,"CCNC(=O)Nc1ccc2ncc(-c3c(C)n[nH]c3C)nc2n1 [Compound 172, 1-[3-(3,5-Dimethyl-1H-pyrazol-4-yl)-pyrido[2,3-b]pyrazin-6-yl]-3-ethyl-urea]"
4.6 µM,4.9 µM,3 µM,> 31.6 µM,"CCNC(=O)Nc1ccc2ncc(-c3ccc(C#N)s3)nc2n1 [Compound 174, 1-[3-(5-Cyano-thiophen-2-yl)-pyrido[2,3-b]pyrazin-6-yl]-3-ethyl-urea]"
